From patent US8273769B2, “Phenoxy acetic acid derivatives” (Merck Serono SA, priority 2009, dated 2012)

Each compound was assayed against T1, CRTH2 (Homo sapiens, UniProt Q9Y5Y4) (assay: Radioligand binding Scintillation Proximity Assay ([3H]PGD2, hCRTH2-CHO cell membranes)). Conditions: 1.5 nM [3H]PGD2, hCRTH2-CHO cell membranes, SPA.
T1 sequence (Q9Y5Y4 1-395): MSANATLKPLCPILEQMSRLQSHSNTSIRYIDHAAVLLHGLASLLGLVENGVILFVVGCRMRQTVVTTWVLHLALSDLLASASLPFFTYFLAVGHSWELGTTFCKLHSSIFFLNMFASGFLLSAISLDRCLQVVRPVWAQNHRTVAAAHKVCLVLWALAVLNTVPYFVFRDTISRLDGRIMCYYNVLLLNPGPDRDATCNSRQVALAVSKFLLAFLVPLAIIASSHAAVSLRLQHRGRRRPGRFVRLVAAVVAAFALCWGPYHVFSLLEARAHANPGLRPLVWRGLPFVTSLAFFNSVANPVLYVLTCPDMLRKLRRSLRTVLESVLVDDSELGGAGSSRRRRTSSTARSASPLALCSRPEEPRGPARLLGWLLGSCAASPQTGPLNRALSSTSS
Set-up: host or cells: CHO cells
Procedure, shortened: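 SPA competition binding at room temperature, 90 min with agitation: 1.5 nM [3H]PGD2, 10-50 μg/ml hCRTH2-CHO membrane protein, WGA SPA beads, HEPES pH 7.4 with 10 mM MnCl2, 1% DMSO. Non-specific binding defined with 10 μM PGD2; scintillation counting.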

| SMILES | IC50 [nM] |
| --- | --- |
| Cc1ccncc1C#Cc1cc(Cl)ccc1OCC(=O)O [Example 15, {4-chloro-2-[(4-methylpyridin-3-yl)ethynyl]phenoxy}acetic acid] | 30 |
| CC(C)Cc1ccncc1C#Cc1cc(Cl)ccc1OCC(=O)O [Example 43, {4-chloro-2-[(4-isobutylpyridin-3-yl)ethynyl]phenoxy}acetic acid] | 6 |
| CS(=O)(=O)c1cc(C#Cc2cc(Cl)ccc2OCC(=O)O)ccc1-c1ccc(Cl)cc1 [Example 144, (4-chloro-2-{[4′-chloro-2-(methylsulfonyl)biphenyl-4-yl]ethynyl}phenoxy)acetic acid] | 17 |
| CS(=O)(=O)c1cc(C#Cc2cc(Cl)ccc2OCC(=O)O)ccc1-c1cccc(Cl)c1 [Example 145, (4-chloro-2-{[3′-chloro-2-(methylsulfonyl)biphenyl-4-yl]ethynyl}phenoxy)acetic acid] | 19 |
| CS(=O)(=O)c1cc(C#Cc2cc(Cl)ccc2OCC(=O)O)ccc1-c1ccccc1Cl [Example 146, (4-chloro-2-{[2′-chloro-2-(methylsulfonyl)biphenyl-4-yl]ethynyl}phenoxy)acetic acid] | 4 |
| CCCS(=O)(=O)c1cccc(C#Cc2c(OCC(=O)O)ccc3ccccc23)c1 [Example 148, [(1-{[3-(propylsulfonyl)phenyl]ethynyl}-2-naphthyl)oxy]acetic acid] | 56 |
| O=C(O)COc1ccc(Cl)cc1C#Cc1ccc(NC(=O)c2ccc(C(F)(F)F)cc2)cc1 [Example 150, {4-chloro-2-[(4-{[4-(trifluoromethyl)benzoyl]amino}phenyl)ethynyl]phenoxy}acetic acid] | 267 |
| O=C(O)COc1ccc(Cl)cc1C#Cc1ccc(NC(=O)c2ccccc2)cc1 [Example 151, (2-{[4-(benzoylamino)phenyl]ethynyl}-4-chlorophenoxy)acetic acid] | 28 |
| O=C(O)COc1ccc(Cl)cc1C#Cc1ccc2c(c1)S(=O)(=O)CC2 [Example 155, {4-chloro-2-[(1,1-dioxido-2,3-dihydro-1-benzothien-6-yl)ethynyl]phenoxy}acetic acid] | 29 |
| O=C(O)COc1ccc(Cl)cc1C#Cc1ccc2c(c1)S(=O)(=O)C=C2 [Example 156, {4-chloro-2-[(1,1-dioxido-1-benzothien-6-yl)ethynyl]phenoxy}acetic acid] | 32 |
| CC(C)(C)N1C(=O)c2ccc(C#Cc3cc(Cl)ccc3OCC(=O)O)cc2S1(=O)=O [Example 157, {2-[(2-tert-butyl-1,1-dioxido-3-oxo-2,3-dihydro-1,2-benzisothiazol-6-yl)ethynyl]-4-chlorophenoxy}acetic acid] | 17 |
| CC1(C)C(=O)c2ccc(C#Cc3cc(Cl)ccc3OCC(=O)O)cc2S1(=O)=O [Example 158, {4-chloro-2-[(2,2-dimethyl-1,1-dioxido-3-oxo-2,3-dihydro-1-benzothien-6-yl)ethynyl]phenoxy}acetic acid] | 34 |
| CC1(C)C(O)c2ccc(C#Cc3cc(Cl)ccc3OCC(=O)O)cc2S1(=O)=O (centres unmarked) [Example 159, {4-chloro-2-[(3-hydroxy-2,2-dimethyl-1,1-dioxido-2,3-dihydro-1-benzothien-6-yl)ethynyl]phenoxy}acetic acid] | 37 |
| COC1c2ccc(C#Cc3cc(Cl)ccc3OCC(=O)O)cc2S(=O)(=O)C1(C)C (centres unmarked) [Example 161, {4-chloro-2-[(3-methoxy-2,2-dimethyl-1,1-dioxido-2,3-dihydro-1-benzothien-6-yl)ethynyl]phenoxy}acetic acid] | 24 |
| CC(C)S(=O)(=O)c1cc(C#Cc2cc(Cl)ccc2OCC(=O)O)ccc1C(=O)N(C)C [Example 164, (4-chloro-2-{[4-[(dimethylamino)carbonyl]-3-(isopropylsulfonyl)phenyl]ethynyl}phenoxy)acetic acid] | 75 |
| CCCN(CC)C(=O)c1ccc(C#Cc2cc(Cl)ccc2OCC(=O)O)cc1S(=O)(=O)C(C)C [Example 166, (4-chloro-2-{[4-{[ethyl(propyl)amino]carbonyl}-3-(isopropylsulfonyl)phenyl]ethynyl}phenoxy)acetic acid] | 43 |

Further compounds by falling IC50, results first:

| IC50 [nM] | SMILES |
| --- | --- |
| 287 | CCCS(=O)(=O)c1ccc(F)c(C#Cc2cc(Cl)ccc2OC(C)(C)C(=O)O)c1 [Example 169, 2-(4-chloro-2-{[2-fluoro-5-(propylsulfonyl)phenyl]ethynyl}phenoxy)-2-methylpropanoic acid] |
| 102 | O=C(O)COc1ccc2ccccc2c1C#Cc1cccc(O)c1 [Example 147, ({1-[(3-hydroxyphenyl)ethynyl]-2-naphthyl}oxy)acetic acid] |
| 100 | CC(C)S(=O)(=O)c1cc(C#Cc2cc(Cl)ccc2OCC(=O)O)ccc1C(=O)N1CCOCC1 [Example 167, (4-chloro-2-{[3-(isopropylsulfonyl)-4-(morpholin-4-ylcarbonyl)phenyl]ethynyl}phenoxy)acetic acid] |
| 66 | CCCC(Oc1ccc(Cl)cc1C#Cc1cc(S(=O)(=O)CCC)ccc1C)C(=O)O (centres unmarked) [Example 171, 2-(4-chloro-2-{[2-methyl-5-(propylsulfonyl)phenyl]ethynyl}phenoxy)pentanoic acid] |
| 60 | CCCS(=O)(=O)c1ccc(C)c(C#Cc2cc(Cl)ccc2OC(CC(C)C)C(=O)O)c1 (centres unmarked) [Example 172, 2-(4-chloro-2-{[2-methyl-5-(propylsulfonyl)phenyl]ethynyl}phenoxy)-4-methylpentanoic acid] |
| 53 | CCN(CC)C(=O)c1ccc(C#Cc2cc(Cl)ccc2OCC(=O)O)cc1S(=O)(=O)C(C)C [Example 165, (4-chloro-2-{[4-[(diethylamino)carbonyl]-3-(isopropylsulfonyl)phenyl]ethynyl}phenoxy)acetic acid] |
| 35 | CCCS(=O)(=O)c1ccc(C)c(C#Cc2cc(Cl)ccc2OC(CC)C(=O)O)c1 (centres unmarked) [Example 170, 2-(4-chloro-2-{[2-methyl-5-(propylsulfonyl)phenyl]ethynyl}phenoxy)butanoic acid] |
| 32 | CC1(O)c2ccc(C#Cc3cc(Cl)ccc3OCC(=O)O)cc2S(=O)(=O)C1(C)C (centres unmarked) [Example 160, {4-chloro-2-[(3-hydroxy-2,2,3-trimethyl-1,1-dioxido-2,3-dihydro-1-benzothien-6-yl)ethynyl]phenoxy}acetic acid] |
| 32 | CCCCN(C)C(=O)c1ccc(C#Cc2cc(Cl)ccc2OCC(=O)O)cc1S(=O)(=O)C(C)C [Example 163, (2-{[4-{[butyl(methyl)amino]carbonyl}-3-(isopropylsulfonyl)phenyl]ethynyl}-4-chlorophenoxy)acetic acid] |
| 13 | CCCS(=O)(=O)c1cccc(C#Cc2cc(C(F)(F)F)ccc2OCC(=O)O)c1 [Example 55, [2-{[3-(propylsulfonyl)phenyl]ethynyl}-4-(trifluoromethyl)phenoxy]acetic acid] |
| 11 | CCC[S+]([O-])c1ccc(C)c(C#Cc2cc(Cl)ccc2OCC(=O)O)c1 (centres unmarked) [Example 149, (4-chloro-2-{[2-methyl-5-(propylsulfinyl)phenyl]ethynyl}phenoxy)acetic acid] |
| 10 | Cc1ccc(S(=O)(=O)CCCO)cc1C#Cc1cc(Cl)ccc1OCC(=O)O [Example 54, [4-chloro-2-({5-[(3-hydroxypropyl)sulfonyl]-2-methylphenyl}ethynyl)phenoxy]acetic acid] |
| 5 | Cc1ccc(S(=O)(=O)CC(C)C)cc1C#Cc1cc(Cl)ccc1OCC(=O)O [Example 53, (4-chloro-2-{[5-(isobutylsulfonyl)-2-methylphenyl]ethynyl}phenoxy)acetic acid] |
| 1 | CCCS(=O)(=O)c1cc(C#Cc2cc(Cl)ccc2OCC(=O)O)c(C)cc1NC(C)=O [Example 153, (2-{[4-(acetylamino)-2-methyl-5-(propylsulfonyl)phenyl]ethynyl}-4-chlorophenoxy)acetic acid] |

What follows are compounds tested against T1, CRTH2 (assay: Cellular Dielectric Spectroscopy (CHO-CRTH2 cells)). Conditions: antagonist mode, fixed concentration of PGD2 (EC80).
Format: cell-based
Set-up: expressed in transfected cells; host or cells: CHO-CRTH2 cells
Description: Cellular Dielectric Spectroscopy (CDS) is a label-free technology based on the measurement of complex impedance changes (delta Z or dZ). Impedance (Z) is related to the ratio of voltage to current as described by Ohm's law (Z=V/I). In order to measure the changes in impedance that occur in response to receptor stimulation, mammalian cells are seeded onto a custom 96-well microliter plate that contains electrodes at the bottom of each well. Key contributors to the impedance measurements are changes in cell-substrate adherence, changes in cell shape and volume, and changes in cell-cell interactions. These factors individually or collectively affect the flow of current, influencing the magnitude and characteristics of the signal measured. G-protein coupled receptors ligand-induced activity can be measured using this technology and specific G protein coupling can be identified. Activities of reference agonist and antagonist molecules of CRTH2 have been measured using this assay and similar results were obtained compared to different functional assays.
CHO-CRTH2 cells are cultured in HAM's F12 (Lonza, Switzerland) supplemented with 10% foetal calf serum (PAA, Australia) and 400 μg/ml Geneticin. 100000 cells/well are seeded in standard 96W Microplates (MDS Analytical Technologies) and incubated at 37° C. in 5% CO2 for 24 hours. Cells are washed twice with 135 μl of cell key buffer (Hank's Balanced Salt Solution 1× (HBSS) (Invitrogen) supplemented with 10 mM HEPES pH 7.4 in presence of 1% DMSO). For EC50 determination. 15 μl of increasing concentration of Compounds of Formula (I) diluted in cell key buffer are added to the cells and agonist activity is then recorded for 25 minutes. […] Results are expressed as the amplitude between the highest and the lowest signal produced (max-min). Basal and maximum activities are measured, respectively in absence or presence of PGD2 (EC80).

| SMILES | IC50 [nM] |
| --- | --- |
| Cc1ccncc1C#Cc1cc(Cl)ccc1OCC(=O)O [Example 15, {4-chloro-2-[(4-methylpyridin-3-yl)ethynyl]phenoxy}acetic acid] | 74 |
| CC(C)Cc1ccncc1C#Cc1cc(Cl)ccc1OCC(=O)O [Example 43, {4-chloro-2-[(4-isobutylpyridin-3-yl)ethynyl]phenoxy}acetic acid] | 269 |

Second part, the compound after the results:

| IC50 [nM] | SMILES |
| --- | --- |
| 37 | Cc1ccc(S(=O)(=O)CCCO)cc1C#Cc1cc(Cl)ccc1OCC(=O)O [Example 54, [4-chloro-2-({5-[(3-hydroxypropyl)sulfonyl]-2-methylphenyl}ethynyl)phenoxy]acetic acid] |
| 50 | Cc1ccc(S(=O)(=O)CC(C)C)cc1C#Cc1cc(Cl)ccc1OCC(=O)O [Example 53, (4-chloro-2-{[5-(isobutylsulfonyl)-2-methylphenyl]ethynyl}phenoxy)acetic acid] |

Same assay, conditions: partial agonists, agonist activity without PGD2

| EC50 [nM] | Emax [%] | SMILES |
| --- | --- | --- |
| 53 | 46 | Cc1ccncc1C#Cc1cc(Cl)ccc1OCC(=O)O [Example 15, {4-chloro-2-[(4-methylpyridin-3-yl)ethynyl]phenoxy}acetic acid] |
| 24 | 62 | CCCS(=O)(=O)c1cccc(C#Cc2cc(C(F)(F)F)ccc2OCC(=O)O)c1 [Example 55, [2-{[3-(propylsulfonyl)phenyl]ethynyl}-4-(trifluoromethyl)phenoxy]acetic acid] |
